Reference: patent publication US20120029187A1, “HALOALKYLSULFONANILIDE DERIVATIVE” (Nissan Chemical Industries, Ltd., priority 2009, published 2012)

What was measured:
Assay type in all cases: in vivo
Italian ryegrass = test: Test Example 3: herbicidal effects in soil treatment; settings: dose 6.3 g/a
Outline: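 Seeds were sown in sterilized diluvial soil and covered with about 1.5 cm of soil. Compounds, formulated as emulsifiable concentrates and diluted with water, were sprayed evenly over the soil surface at set doses in g/a. Herbicidal effect was scored on a rating scale three weeks later.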

bulrush = test: Test Example 2: herbicidal effects during the vegetation period under submerged conditions; settings: treatment during the vegetation period under submerged conditions; dose 2.52 g/a
Outline: (§1)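 Barnyardgrass, bulrush and ducksalad were co-sown in alluvial soil flooded to 4 cm and grown in a greenhouse at 25 to 30° C. At the 1- or 2-leaf stage, water-diluted emulsifiable concentrates went onto the water surface at set doses (g/a). Herbicidal effect was scored three weeks later on a graded scale.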

barnyardgrass [1] = test: as above; settings: treatment during the vegetation period under submerged conditions; dose 2.52 g/a
Outline: as §1

ducksalad = test: as above; settings: treatment during the vegetation period under submerged conditions; dose 2.52 g/a
Outline: as §1

barnyardgrass [2] = test: Comparative Example 1: herbicidal effects in preemergence treatment on barnyardgrass under submerged conditions; settings: applied to water surface on the day of seeding, three weeks after application
Description: Comparative Example 1 Test on the Herbicidal Effects in Preemergence Treatment on Barnyardgrass Under Submerged Conditions Alluvial soil was put in 1/30000-are styrol cups and admixed with water so that it was submerged at a depth of 4 cm. In each cup, seeds of barnyardgrass were sown, and on the same day as the seeding, emulsifiable concentrates containing compounds of the present invention formulated in accordance with Formulation Example 2 were applied to the water surfaces at predetermined doses after diluted with water. The cups were placed in a greenhouse at 25 to 30° C. to grow the plants. Three weeks after the application, the herbicidal effects against barnyardgrass were determined on the following evaluation scale. The symbol A in the table means barnyardgrass.

## CC(C)COC(=O)N(c1ccccc1CN1COCCC1=O)S(=O)(=O)C(F)(F)F [II-3]
Italian ryegrass
  H: Italian ryegrass, herbicidal effect (evaluation scale 0-5): 4 (mortality of at least 70% and less than 90%)
bulrush
  B: bulrush, herbicidal effect (evaluation scale 0-5): 5 (mortality of 90% or above (nearly complete death))
Barnyardgrass [1]
  A: barnyardgrass, herbicidal effect (evaluation scale 0-5): 5 (mortality of 90% or above (nearly complete death))
ducksalad
  C: ducksalad, herbicidal effect (evaluation scale 0-5): 4 (mortality of at least 70% and less than 90%)
Barnyardgrass [2]; dose 0.16 g/a
  herbicidal effect, A (barnyardgrass): 5 (mortality of 90% or above (nearly complete death))
Barnyardgrass [2]; dose 0.64 g/a
  herbicidal effect, A (barnyardgrass): 5 (mortality of 90% or above (nearly complete death))
Barnyardgrass [2]; dose 2.52 g/a
  herbicidal effect, A (barnyardgrass): 5 (mortality of 90% or above (nearly complete death))
